Blank lines part the entries; values can stand above or below the compound they belong to.
Columns and labels:
[1] = molecular target: T1, Prostaglandin D2 receptor 2 (Homo sapiens, UniProt Q9Y5Y4); test: Antagonist activity at CRTh2 receptor (unknown origin) overexpressed in CHOK1 cell membranes assessed as inhibition of [35S]-GTPgammaS binding at 1 to 5 uM preincubated for 1 hr followed by 50 nM PGD2 and 0.1 nM [35S]-GTPgammaS addition measured after 2 hrs by liquid scintillation counting analysis relative to control; format: functional, CHO-K1
T1 sequence (Q9Y5Y4 whole entry): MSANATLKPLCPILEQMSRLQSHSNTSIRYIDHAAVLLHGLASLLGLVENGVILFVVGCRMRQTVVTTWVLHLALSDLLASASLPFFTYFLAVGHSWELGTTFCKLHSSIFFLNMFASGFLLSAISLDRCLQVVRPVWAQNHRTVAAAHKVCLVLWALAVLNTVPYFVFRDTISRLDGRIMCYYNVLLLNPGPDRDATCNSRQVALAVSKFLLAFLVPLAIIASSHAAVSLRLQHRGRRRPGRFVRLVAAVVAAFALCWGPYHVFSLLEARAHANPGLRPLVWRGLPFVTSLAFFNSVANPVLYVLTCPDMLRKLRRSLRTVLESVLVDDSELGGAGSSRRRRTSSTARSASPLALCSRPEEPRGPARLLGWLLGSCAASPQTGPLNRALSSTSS

[2] = molecular target: T2, Prostaglandin D2 receptor 2 (Homo sapiens) (UniProt Q9Y5Y4); settings: CHO-K1
T2 sequence (whole entry): T1 sequence (Q9Y5Y4 whole entry)
Description: Binding affinity to CRTh2 receptor (unknown origin) overexpressed in CHOK1 cell membranes assessed as dissociation half life at 10 X IC50 preincubated for 1 hr followed [35S]-GTPgammaS addition measured after 2 hrs by liquid scintillation counting analysis

[3] = Dissociation constant, acidic pKa of the compound by potentiometric assay; format: physicochemical
[4] = Dissociation constant, basic pKa of the compound by potentiometric assay; format: physicochemical
[5] = Thermodynamic solubility in pH 1.0 buffer after 24 hrs at 37 degC; format: physicochemical; settings: read-out: Therm_solubility
[6] = Mean residence time in rat at 1 mg/kg; format: ADME, organism-based; design: dose 1 mg/kg; settings: in vivo
[7] = Oral bioavailability in rat at 10 mg/kg; format: ADME, organism-based; settings: in vivo
[8] = Clearance in rat at 1 mg/kg; format: ADME, organism-based; design: dose 1 mg/kg; settings: in vivo
[9] = Permeability of the compound assessed as mass balance at 20 uM incubated at 20 degC for 5 hrs in 2% DMSO containing PBS buffer solution by PAMPA assay; format: ADME; settings: read-out: Activity
[10] = Cmax in rat at 1 mg/kg; format: ADME, organism-based; design: dose 1 mg/kg; settings: in vivo
[11] = Drug metabolism in rat liver microsomes at 5 uM in presence of NADPH after 30 mins at 37 degC; format: ADME; settings: read-out: Drug metabolism
[12] = Lipophilicity, log D of the compound at pH 7.4 by shake flask method; format: physicochemical; settings: buffer
[13] = Apparent permeability of the compound at 20 uM incubated at 20 degC for 5 hrs in 2% DMSO containing PBS buffer solution by PAMPA assay; format: physicochemical
[14] = Drug metabolism in rat liver microsomes assessed as phase-2 metabolism measured by glucuronidation level at 5 uM in presence of UDPGA after 2 hrs at 37 degC; format: ADME; settings: read-out: Drug metabolism
[15] = AUC (0 to infinity) in rat at 1 mg/kg; format: ADME, organism-based; design: time infinity, dose 1 mg/kg; settings: plasma
[16] = Volume of distribution at steady state in rat at 1 mg/kg; format: ADME, organism-based; design: dose 1 mg/kg; settings: in vivo, read-out: Vdss
[17] = Thermodynamic solubility in pH 7.4 buffer after 24 hrs at 37 degC; format: physicochemical; settings: read-out: Therm_solubility
[18] = Terminal half life in rat at 1 mg/kg; format: ADME, organism-based; design: dose 1 mg/kg; settings: in vivo, read-out: beta t1/2 (converted)
[19] = Drug metabolism in human liver microsomes at 5 uM in presence of NADPH after 30 mins at 37 degC; format: ADME; settings: read-out: Drug metabolism
[20] = Drug metabolism in human liver microsomes assessed as phase-2 metabolism measured by glucuronidation level at 5 uM in presence of UDPGA after 2 hrs at 37 degC; format: ADME; settings: read-out: Drug metabolism
[21] = Antagonist activity at CRTh2 receptor in human eosinophil assessed as inhibition of PGD2-induced cell shape change

IC50 [1]: 262 nM
Structure (SMILES): CCN(Cc1cc(C(F)(F)F)ccc1-c1cc(CC(=O)O)c2cccn2c1)C(=O)C1CC1

IC50 [1]: 48 nM
T1/2 [2]: 1.4 h
Structure (SMILES): CCN(Cc1cc(C(F)(F)F)ccc1-c1cc(CC(=O)O)cc2cnn(C)c12)C(=O)C1CC1

IC50 [1]: 82 nM
pKa [3]: 3
pKa [4]: 4.8
T1/2 [2]: 0.7 h
solubility thermodynamic at 24 h [5]: > 1000 µg/mL
Structure (SMILES): CCN(Cc1cc(C(F)(F)F)ccc1-c1nc(CC(=O)O)c2ccccn12)C(=O)C1CC1

MRT [6]: 1.6 h
bioavailability [7]: 46%
clearance [8]: 30 mL/min/kg
recovery at 5 h, 20 µM [9]: 71%
Cmax [10]: 571 ng/mL
metabolised at 0.5 h, 5 µM [11]: < 5%
logD [12]: 1.4
Papp at 5 h, 20 µM [13]: 0.6 ×10⁻⁶ cm/s
T1/2 [2]: 4 h
metabolised at 2 h, 5 µM [14]: 32%
AUC(0-inf) [15]: 559 ng·h/mL
Vd [16]: 2.9 L/kg
solubility thermodynamic at 24 h [5]: < 1 µg/mL
solubility thermodynamic at 24 h [17]: > 1000 µg/mL
half-life [18]: 1.5 h
Structure (SMILES): CCN(Cc1cc(C(F)(F)F)ccc1-c1cn(CC(=O)O)c2ccccc12)C(=O)C1CC1

MRT [6]: 4.7 h
metabolised at 0.5 h, 5 µM [19]: < 5%
IC50 [1]: 16 nM
clearance [8]: 6.9 mL/min/kg
recovery at 5 h, 20 µM [9]: 91%
Cmax [10]: 1530 ng/mL
logD [12]: 0.6
metabolised at 2 h, 5 µM [20]: 28%
Papp at 5 h, 20 µM [13]: 1.5 ×10⁻⁶ cm/s
metabolised at 2 h, 5 µM [14]: 21%
AUC(0-inf) [15]: 2420 ng·h/mL
Vd [16]: 2 L/kg
half-life [18]: 5.9 h
Structure (SMILES): CCN(Cc1cc(C(F)(F)F)ccc1-c1cc(CC(=O)O)ccc1OC)C(=O)C1CC1

MRT [6]: 3.4 h
clearance [8]: 19 mL/min/kg
recovery at 5 h, 20 µM [9]: 80%
pKa [3]: 2.4
Cmax [10]: 926 ng/mL
logD [12]: 0.5
pKa [4]: 4.2
Papp at 5 h, 20 µM [13]: 1.1 ×10⁻⁶ cm/s
metabolised at 2 h, 5 µM [14]: 6%
AUC(0-inf) [15]: 885 ng·h/mL
Vd [16]: 3.9 L/kg
solubility thermodynamic at 24 h [5]: > 1000 µg/mL
solubility thermodynamic at 24 h [17]: > 1000 µg/mL
half-life [18]: 5.3 h
Structure (SMILES): CCN(Cc1cc(C(F)(F)F)ccc1-n1cc(CC(=O)O)c2cccnc21)C(=O)C1CC1

IC50 [21]: 84 nM
Structure (SMILES): CCN(Cc1cc(C(F)(F)F)ccc1-n1cc(CC(=O)O)c2ccccc21)C(=O)C1CC1

T1/2 [2]: 1.5 h
Structure (SMILES): CCN(Cc1cc(C(F)(F)F)ccc1-c1cc(CC(=O)O)c2ccncn12)C(=O)C1CC1

IC50 [1]: 43 nM
pKa [3]: 2.4
pKa [4]: 7.8
T1/2 [2]: 1.1 h
Structure (SMILES): CCN(Cc1cc(C(F)(F)F)ccc1-c1cn(CC(=O)O)c2ccncc12)C(=O)C1CC1

pKa [3]: 2.5
pKa [4]: 5.6
solubility thermodynamic at 24 h [5]: > 1000 µg/mL
solubility thermodynamic at 24 h [17]: > 1000 µg/mL
Structure (SMILES): CCN(Cc1cc(C(F)(F)F)ccc1-c1cn(CC(=O)O)c2cccnc12)C(=O)C1CC1

IC50 [21]: 47 nM
MRT [6]: 2.4 h
metabolised at 0.5 h, 5 µM [19]: < 5%
clearance [8]: 38 mL/min/kg
recovery at 5 h, 20 µM [9]: 81%
pKa [3]: 2.8
Cmax [10]: 550 ng/mL
metabolised at 0.5 h, 5 µM [11]: < 5%
logD [12]: 0.8
metabolised at 2 h, 5 µM [20]: 35%
Papp at 5 h, 20 µM [13]: 0.18 ×10⁻⁶ cm/s
T1/2 [2]: 1.6 h
metabolised at 2 h, 5 µM [14]: 12%
AUC(0-inf) [15]: 440 ng·h/mL
Vd [16]: 5.4 L/kg
solubility thermodynamic at 24 h [5]: < 1 µg/mL
solubility thermodynamic at 24 h [17]: > 1000 µg/mL
half-life [18]: 2.4 h
Structure (SMILES): CCN(Cc1cc(C(F)(F)F)ccc1-c1nn(CC(=O)O)c2ccccc12)C(=O)C1CC1

IC50 [1]: 247 nM
Structure (SMILES): CCN(Cc1cc(C(F)(F)F)ccc1-c1cc(CC(=O)O)cn2nccc12)C(=O)C1CC1

IC50 [1]: 159 nM
T1/2 [2]: 0.7 h
Structure (SMILES): CCN(Cc1cc(C(F)(F)F)ccc1-c1cc(CC(=O)O)cn2ccnc12)C(=O)C1CC1

IC50 [1]: 48 nM
T1/2 [2]: 1.2 h
Structure (SMILES): CCN(Cc1cc(C(F)(F)F)ccc1-c1cc(CC(=O)O)cc2cn(C)nc12)C(=O)C1CC1

IC50 [1]: 398 nM
Structure (SMILES): CCN(Cc1cc(C(F)(F)F)ccc1-c1cc(CC(=O)O)cn2cnnc12)C(=O)C1CC1

IC50 [1]: 123 nM
T1/2 [2]: 0.2 h
Structure (SMILES): CCN(Cc1cc(C(F)(F)F)ccc1-c1cc(CC(=O)O)c2ccnn2c1)C(=O)C1CC1

IC50 [21]: 1.4 nM
pKa [3]: 3.7
pKa [4]: 1.7
solubility thermodynamic at 24 h [5]: > 1000 µg/mL
solubility thermodynamic at 24 h [17]: > 1000 µg/mL
Structure (SMILES): CCN(Cc1cc(C(F)(F)F)ccc1-c1cc(CC(=O)O)n2cccnc12)C(=O)C1CC1
